For one assay, the target named is T1, EPAC2 (Mus musculus, UniProt Q9EQZ6).
T1 sequence (Q9EQZ6 1-1011): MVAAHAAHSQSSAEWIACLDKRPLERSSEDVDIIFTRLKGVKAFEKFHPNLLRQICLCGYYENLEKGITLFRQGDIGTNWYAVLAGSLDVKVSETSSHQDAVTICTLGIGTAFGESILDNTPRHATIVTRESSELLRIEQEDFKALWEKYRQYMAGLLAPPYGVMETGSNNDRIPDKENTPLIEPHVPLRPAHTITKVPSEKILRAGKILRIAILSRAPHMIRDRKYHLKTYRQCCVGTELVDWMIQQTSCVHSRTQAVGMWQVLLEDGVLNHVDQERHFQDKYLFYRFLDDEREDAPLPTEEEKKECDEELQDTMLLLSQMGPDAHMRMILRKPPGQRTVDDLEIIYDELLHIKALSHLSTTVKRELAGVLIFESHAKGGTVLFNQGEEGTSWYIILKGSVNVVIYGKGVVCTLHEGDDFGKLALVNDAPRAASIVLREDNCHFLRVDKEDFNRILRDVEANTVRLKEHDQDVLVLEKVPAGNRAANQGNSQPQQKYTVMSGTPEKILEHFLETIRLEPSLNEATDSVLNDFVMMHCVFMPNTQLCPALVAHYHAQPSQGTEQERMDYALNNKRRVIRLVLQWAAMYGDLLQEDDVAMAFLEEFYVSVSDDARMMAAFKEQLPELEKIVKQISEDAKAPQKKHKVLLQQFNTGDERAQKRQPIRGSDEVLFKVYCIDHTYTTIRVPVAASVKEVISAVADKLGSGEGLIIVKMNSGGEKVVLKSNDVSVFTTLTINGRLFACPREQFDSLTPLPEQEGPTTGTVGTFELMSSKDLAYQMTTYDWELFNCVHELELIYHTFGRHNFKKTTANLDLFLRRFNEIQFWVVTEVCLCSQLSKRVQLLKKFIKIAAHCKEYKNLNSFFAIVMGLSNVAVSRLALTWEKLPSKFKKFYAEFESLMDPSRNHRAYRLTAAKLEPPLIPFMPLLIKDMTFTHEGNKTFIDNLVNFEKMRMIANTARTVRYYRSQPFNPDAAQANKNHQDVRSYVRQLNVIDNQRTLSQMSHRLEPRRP
The experiment in a line: Rap1-GDP exchange (GEF) activity assay, EPAC2.

In assay [1] the test system is AsPC-1, BxPC-3, and PANC-1. The assay is described as follows: Transwell migration/invasion assay. Format: cell-based. The note with it: pretreated with 10.0 μM for 24 hours; AsPC-1, BxPC-3, PANC-1. The method, then:
The top chamber of 8 micron inserts (Costar Inc) were coated with BD Matrigel™ Basement Membrane Matrix ([…]). Cells (2×10^5) pretreated with 10.0 μM of ESI-09 for 24 hours were added to the top chamber of the inserts in serum free RPMI medium containing 0.25% BSA. The bottom chamber was filled with 600.0 μL of RPMI containing 10% FBS and 10.0 μM ESI-09. The cells were then incubated at 37° C. in 5% CO2 for 20 hours. Cells were removed from the top chamber and migrated cells were fixed in methanol and stained with crystal violet. The number of migrated cells were counted from four different fields.

Assay [2] concerns the target T2, EPAC1 (Homo sapiens, UniProt O95398).
T2 sequence (O95398 1-923): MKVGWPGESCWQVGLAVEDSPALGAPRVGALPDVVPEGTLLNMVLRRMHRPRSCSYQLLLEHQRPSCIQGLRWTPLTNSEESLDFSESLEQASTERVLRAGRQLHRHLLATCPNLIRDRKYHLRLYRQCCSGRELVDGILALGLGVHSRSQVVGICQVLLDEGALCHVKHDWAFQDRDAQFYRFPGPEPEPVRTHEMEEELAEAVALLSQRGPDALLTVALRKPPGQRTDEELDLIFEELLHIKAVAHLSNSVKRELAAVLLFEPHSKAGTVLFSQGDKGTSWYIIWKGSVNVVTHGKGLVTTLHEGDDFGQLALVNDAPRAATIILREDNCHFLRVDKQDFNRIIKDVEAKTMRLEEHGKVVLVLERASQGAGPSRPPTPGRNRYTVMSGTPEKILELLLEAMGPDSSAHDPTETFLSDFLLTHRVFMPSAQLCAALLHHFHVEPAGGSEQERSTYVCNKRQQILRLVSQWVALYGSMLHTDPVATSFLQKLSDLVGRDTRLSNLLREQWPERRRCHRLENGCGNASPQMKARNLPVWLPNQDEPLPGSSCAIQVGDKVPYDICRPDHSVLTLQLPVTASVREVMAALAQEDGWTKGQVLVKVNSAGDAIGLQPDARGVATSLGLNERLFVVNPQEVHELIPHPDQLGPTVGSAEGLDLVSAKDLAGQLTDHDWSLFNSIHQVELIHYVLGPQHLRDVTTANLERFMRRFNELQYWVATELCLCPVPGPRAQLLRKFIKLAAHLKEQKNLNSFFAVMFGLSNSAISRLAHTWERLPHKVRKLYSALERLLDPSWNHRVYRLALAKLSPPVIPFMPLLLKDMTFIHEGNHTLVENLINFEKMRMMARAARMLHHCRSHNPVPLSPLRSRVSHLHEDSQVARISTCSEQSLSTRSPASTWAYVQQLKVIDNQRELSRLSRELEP
The assay is described as follows: Rap1 activation assay in HEK293/EPAC1 cells. Format: cell-based. The method, then:
FIGS. 9A-9B. Effects of EPAC2-specific antagonists on 007-AM-mediated cellular activation of Rap1. […] GTP-bound Rap1 (Rap1GTP) obtained by a Ral-GDSRBD-GST pull-down assay and total cellular Rap1 were detected by immunoblotting with Rap1-specific antibody. […] At test was used to determine statistical significance (*P<0.05).
Cellular activation of Rap1 was determined by pull-down of lysates derived from human vascular smooth muscle cell and HEK293 cells stably expressing EPAC1 or EPAC2 employing Ral-GDS-RBD-GST affinity beads as described earlier (Mei and Cheng (2005) Molecular Biosystems 1: 325-331).

The test system of a further assay is R. australia. The assay is described as follows: Lethal-dose R. australia infection of mice. It counts as in vivo. The settings on record: WT C57BL/6 mice, 10 mg/kg, IP daily. The method, then: FIG. 21. ESI-09 treatment protects mice from lethal-dose infection of R. australia. WT C57BL/6 mice were treated with vehicle or ESI-09 (10 mg/kg, IP) daily. Five days after the treatment, mice were challenged with lethal dose of R. australia and continued ESI-09 daily treatment. Severity of illness and survival rate were monitored.
To test if EPAC inhibitors are capable of protecting mice from lethal-dose infection of R. australia. WT C57BL/6 mice were treated with vehicle or ESI-09 (10 mg/kg, IP) daily. Five days after the treatment, mice were challenged with lethal dose of R. australia and continued ESI-09 daily treatment.

Assay [3] deals with T2, EPAC1. The experiment in a line: Rap1-GDP exchange (GEF) activity assay, EPAC1.

Entries after “also recorded” stand apart in the source; their conditions may differ.

Method for EPAC2: Exchange of Mant-GDP by GDP was measured as a decrease in fluorescence intensity over time using a FluoroMax-3 spectrofluorometer with excitation/emission wavelengths set at 366/450 nm. Typically, decay in the fluorescence intensity was recorded over a time course of 6000 s with data points taken every 60 s.

As a reminder, the IC50 is the midpoint of a concentration-inhibition curve. Low readings indicate greater potency, high ones weaker potency. Take `CC(C)(C)c1cc(C(=O)C(C#N)=NNc2cccc(Cl)c2)no1` [ESI-09, 3-(5-Tert-Butyl-Isoxazol-3-Yl)-2-[(3-Chlorophenyl)-Hydrazono]-3-Oxo-Propionitrile]: the half-maximal inhibitory concentration (IC50) against EPAC2 is 1400 ± 100 nM; against EPAC1 [3], 3200 nM. For the same molecule, in assay [1], the “cell migration, trans-well migration/invasion” value is “significant decrease; also recorded: significantly (P<0.05) decreased”. On EPAC1 [2], the “007-AM induced Rap1 activation” value is on record as “effective”. The “protection of R. australia infection” value in the assay with R. australia was “striking protection; also recorded: protects”. The “treatment group showing sign of sickness” value in the assay with R. australia came to 10%.

Source of the values: patent US9539256B2 (THE BOARD OF REGENTS OF THE UNIVERSITY OF TEXAS SYSTEM, priority 2012, dated 2017).
